Here are results for one substance from patent publication US20110059969A1, “PIPERAZINES AS ANTI-OBESITY AGENTS” (ASTRAZENECA AB, priority 2007, published 2011).

Experiment [1] has as its system JEG-3 cells. The experiment is described as follows: [3H]-thymidine incorporation by JEG-3 cells (JEG-3 protocol). The settings on record: FIG. 5. Type of experiment: cell-based. As to the method:
In JEG-3 cells (choriocarcinoma cell line) leptin is able to stimulate proliferation up to 3 fold (Biol. Reprod. (2007) 76: 203-10). […] The radioactivity incorporated by the cells is an index of their proliferative activity and is measured in counts per minute (CPM) with a liquid scintillation beta counter.
This finding can be applied to test whether a compound is able to either reproduce the effect of leptin on cell proliferation (leptin receptor agonist mimetic) (i.e., a given compound will cause an increase in incorporated [^3H]-Thymidine by the cells) or to inhibit the effect of leptin (antagonistic effect) by preventing the leptin-mediated increase in [^3H]-thymidine incorporation.
This approach has the advantage of using a non-recombinant system and has reasonable reproducibility and robustness.

In experiment [2] the test system is JEG-3 cells. The settings on record: Biol. Reprod. (2007) 76: 203-10; cited from earlier work.

As to “Leptin: hormone synthesized in fat cells that is believed to act in the hypothalamus to reduce food intake and body weight”, in experiment [1] (JEG-3 cells (choriocarcinoma cell line), read-out: EC50 of concentration-dependent increase in [3H]-thymidine incorporation), the EC50 worked out at 2.1 nM. Further, the “concentration giving maximal effect on [3H]-thymidine incorporation” value in experiment [1] (JEG-3 cells) is 100 nM. For the same substance, the stimulation of proliferation result in experiment [2] is “up to 3 fold”.
